Assay results taken from patent US11542266B1, “Substituted piperidines as BTK inhibitors” (HAISCO PHARMACEUTICALS PTE. LTD., priority 2019, dated 2023).

Experiments:
[1] = Pharmacokinetic experiment in rats (i.g. vehicle 0.5% MC); type: in vivo; details: Sprague-Dawley (SD), rat, po; male SD rats, plasma, i.g. 20 mg/kg, vehicle 0.5% MC; read-out: AUC0-t
Procedure: (§1) Objective: In this experiment, a single dose of each test compound was administered to SD rats intravenously and intragastrically, the concentrations of the test compound in plasma of rats were measured, and the pharmacokinetic characteristics and bioavailability of the test compound in rats were evaluated.
Experimental animals: Male SD rats, 200-250 g, 6-8 weeks old, 6 rats/test compound. The experimental animals were purchased from CHENGDU DOSSY EXPERIMENTAL ANIMALS CO., LTD.
(§2) Experimental method: On the day of the experiment, 6 SD rats were randomly grouped according to their body weight. The animals were fasted with water available for 12 to 14 hours one day before the administration of a test compound, and were fed 4 hours after the administration.
Sampling: Before and after the administration, 0.1 ml of blood was taken from the orbit of the rats under isoflurane anesthesia, and placed in an EDTAK2 centrifuge tube. Centrifugation was carried out at 5000 rpm at 4° C. for 10 min and the plasma was collected.
Time points for plasma collection in G1 group: 0, 5 m, 15 m, 30 m, 1 h, 2 h, 4 h, 6 h, 8 h, and 24 h.
Time points for plasma collection in G2 group: 0, 15 m, 30 m, 1 h, 2 h, 4 h, 6 h, 8 h, and 24 h.
(§3) Before analysis and detection, all samples were stored at −80° C. The samples were analyzed quantitatively by LC-MS/MS.

[2] = tested on: SU-DHL-4 cells; test: Inhibition of cell proliferation, SU-DHL-4 cells (Cell Viability Assay, 72 h); type: cell-based, human; details: Homo sapiens
Procedure: (§4) SU-DHL-4, Mino, and SU-DHL-6 cells, in the culture medium of RPMI1640+10% FBS, were cultured in an incubator at 37° C. under 5% CO2. Cells were plated in a 96-well plate. Specifically, SU-DHL-4 cells were at 20000/well, Mino and SU-DHL-6 cells were at 5000/well, with 90 μL/well. 10 μL of the compounds at different concentrations were added to each well. There were 3 replicate wells for each concentration, and the last column, added with DMSO, was used as a vehicle control group. The cultures were continued for 72 hours at 37° C. under 5% CO2. After 72 hours, 100 μL of detection reagent (Cell Viability Assay, Promega, G7573) was added to each well, and the cultures were uniformly mixed for 2 minutes, and incubated at room temperature for 10 minutes. The fluorescence signal value was measured with a microplate reader (PHERAstar FSX). The IC50 value of the compound on cell proliferation inhibition was calculated using Origin 9.2 software, and the inhibition rate at the highest concentration of the compound (Max inhi. %) was calculated according to formula (1). Max inhi. %=(1-T72 administration/T72 vehicle)×100 Formula (1).

[3] = tested on: SU-DHL-6 cells; test: Inhibition of cell proliferation, SU-DHL-6 cells (Cell Viability Assay, 72 h); type: cell-based; details: Homo sapiens
Procedure: as §4

[4] = tested on: Mino cells; test: Inhibition of cell proliferation, Mino cells (Cell Viability Assay, 72 h); type: cell-based, human; details: Homo sapiens
How it was run: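 RPMI1640 + 10% FBS cultures seeded at 20000/well (SU-DHL-4) or 5000/well (Mino, SU-DHL-6), exposed to compound dilutions in triplicate for 72 h at 37 °C, 5% CO2, DMSO vehicle control. Viability read by luminescent reagent; IC50 from dose-response and Max inhi. % = (1 − T72 treated/T72 vehicle)×100 at top concentration.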

[5] = Pharmacokinetic experiment in rats (i.g. vehicle DMSO/Solutol/PEG-400/SBE-β-CD); type: in vivo; details: Sprague-Dawley (SD), rat, plasma, po, male SD rats; for bioavailability: i.g. 20 mg/kg (DMSO/Solutol/PEG-400/SBE-β-CD) vs i.v. 5 mg/kg; for AUC(0-t): i.g. 20 mg/kg, vehicle 5% DMSO + 5% Solutol + 30% PEG-400 + 60% (20%SBE-β-CD)
Procedure: as §1
Experimental animals: Male SD rats, 200-250 g, 6-8 weeks old, 6 rats/compound. The experimental animals were purchased from CHENGDU DOSSY EXPERIMENTAL ANIMALS CO., LTD.
as §2
Sampling: Before and after the administration, 0.1 mL of blood was taken from the orbit of the rats under isoflurane anesthesia, and placed in an EDTAK2 centrifuge tube. Centrifugation was carried out at 5000 rpm at 4° C. for 10 min and the plasma was collected.
Time points for plasma collection in G1 group: 0, 5 min, 15 min, 30 min, 1 h, 2 h, 4 h, 6 h, 8 h, and 24 h.
Time points for plasma collection in G2 group: 0, 15 min, 30 min, 1 h, 2 h, 4 h, 6 h, 8 h, and 24 h.
as §3

| Structure (SMILES) | AUC(0-t) [1] [ng·h/mL] | IC50 [2] [nM] | IC50 [3] [nM] | bioavailability [5] [%] | AUC(0-t) [5] [ng·h/mL] | IC50 [4] [nM] |
| --- | --- | --- | --- | --- | --- | --- |
| Nc1ncnc2c1c(-c1ccc(Oc3ccccc3)cc1)nn2C1CCN(C2CCN(C3CCN(c4ccc5c(c4)C(=O)N(C4CCC(=O)NC4=O)C5=O)CC3)CC2)CC1 (stereo not drawn) [Compound 2, 5-[4-[4-[4-[4-amino-3-(4-phenoxyphenyl)pyrazolo[3,4-d]pyrimidin-1-yl]-1-piperidyl]-1-piperidyl]-1-piperidyl]-2-(2,6-dioxo-3-piperidyl)isoindoline-1,3-dione] | 18.6 ± 2.8 | 41 | 26 | – | – | 633 |
| Nc1ncnc2c1c(-c1ccc(Oc3ccccc3)cc1)nn2C1CCN(CC2CCN(C3CN(c4ccc5c(c4)C(=O)N(C4CCC(=O)NC4=O)C5=O)C3)CC2)CC1 (stereo not drawn) [Compound 6, 5-(3-(4-((4-(4-amino-3-(4-phenoxyphenyl)-1H-pyrazolo[3,4-d]pyrimidin-1-yl)piperidin-1-yl)methyl)piperidin-1-yl)azetidin-1-yl)-2-(2,6-dioxopiperidin-3-yl)isoindoline-1,3-dione tritrifluoroacetate] | 328 ± 41 | – | 166 | – | – | 421 |
| Nc1ncnc2c1c(-c1ccc(Oc3ccccc3)cc1)nn2C1CCN(CC2CCN(C3CCN(c4ccc5c(c4)C(=O)N(C4CCC(=O)NC4=O)C5=O)CC3)CC2)CC1 (stereo not drawn) [Compound 9, 5-(4-((4-(4-amino-3-(4-phenoxyphenyl)-1H-pyrazolo[3,4-d]pyrimidin-1-yl)piperidin-1-yl)methyl)-[1,4′-bipiperidin]-1′-yl)-2-(2,6-dioxopiperidin-3-yl)isoindoline-1,3-dione tetratrifluoroacetate] | 8.93 ± 4.3 | 295 | 155 | – | – | 367 |
| Nc1ncnc2c1c(-c1ccc(Oc3ccccc3)cc1)nn2C1CCN(C2CN(C3CCN(C4CCN(C5CCN(c6ccc7c(c6)C(=O)N(C6CCC(=O)NC6=O)C7=O)CC5)CC4)CC3)C2)CC1 (stereo not drawn) [Compound 11, 5-[4-[4-[4-[3-[4-[4-amino-3-(4-phenoxyphenyl)pyrazolo[3,4-d]pyrimidin-1-yl]-1-piperidyl]azetidin-1-yl]-1-piperidyl]-1-piperidyl]-1-piperidyl]-2-(2,6-dioxo-3-piperidyl)isoindoline-1,3-dione Hexatrifluoroacetate] | – | 189 | 109 | – | – | 114 |
| Nc1ncnc2c1c(-c1ccc(Oc3ccccc3)cc1)nn2[C@@H]1CCN(C2CN(C3CN(c4ccc5c(c4)C(=O)N(C4CCC(=O)NC4=O)C5=O)C3)C2)C[C@@H]1F (stereo partly drawn) [Compound 38, 5-[3-[3-[(3S,4R)-4-[4-amino-3-(4-phenoxyphenyl)pyrazolo[3,4-d]pyrimidin-1-yl]-3-fluoro-1-piperidyl]azetidin-1-yl]azetidin-1-yl]-2-(2,6-dioxo-3-piperidyl)isoindoline-1,3-dione] | – | 469 | 888 | 13.3 ± 5.2 | 7260 ± 2860 | 81 |
| Nc1ncnc2c1c(-c1ccc(Oc3ccccc3)cc1)nn2[C@@H]1CCN(C2CN(C3CN(c4ccc5c(c4)C(=O)N(C4CCC(=O)NC4=O)C5=O)C3)C2)C[C@H]1F (stereo partly drawn) [Compound 39, 5-(3-((3R,4R)-4-(4-amino-3-(4-phenoxyphenyl)-1H-pyrazolo[3,4-d]pyrimidin-1-yl)-3-fluoropiperidin-1-yl)-[1,3′-biazetidin]-1′-yl)-2-(2,6-dioxopiperidin-3-yl)isoindoline-1,3-dione] | – | – | – | 9.1 ± 1.5 | 2830 ± 474 | 41 |
| Nc1ncnc2c1c(-c1ccc(Oc3ccccc3)cc1)nn2[C@H]1CCN(C2CN(C3CN(c4ccc5c(c4)C(=O)N(C4CCC(=O)NC4=O)C5=O)C3)C2)C[C@@H]1F (stereo partly drawn) [Compound 43, 5-[3-[3-[(3S,4S)-4-[4-amino-3-(4-phenoxyphenyl)pyrazolo[3,4-d]pyrimidin-1-yl]-3-fluoro-1-piperidyl]azetidin-1-yl]azetidin-1-yl]-2-(2,6-dioxo-3-piperidyl)isoindoline-1,3-dione] | – | 330 | 407 | 11 ± 2.2 | 4500 ± 886 | 10 |

More lines, main results first:

| AUC(0-t) [1] [ng·h/mL] | IC50 [2] [nM] | IC50 [3] [nM] | bioavailability [5] [%] | AUC(0-t) [5] [ng·h/mL] | Structure (SMILES) | IC50 [4] [nM] |
| --- | --- | --- | --- | --- | --- | --- |
| – | 56 | 106 | – | – | Nc1ncnc2c1c(-c1ccc(Oc3ccccc3)cc1)nn2C1CCN(C2CCN(C3CCN(C4CCN(c5ccc6c(c5)C(=O)N(C5CCC(=O)NC5=O)C6=O)CC4)CC3)CC2)CC1 (stereo not drawn) [Compound 12, 5-[4-[4-[4-[4-[4-amino-3-(4-phenoxyphenyl)pyrazolo[3,4-d]pyrimidin-1-yl]-1-piperidyl]-1-piperidyl]-1-piperidyl]-1-piperidyl]-2-(2,6-dioxo-3-piperidyl)isoindoline-1,3-dione pentatrifluoroacetate] | 183 |
| 322 ± 64 | 330 | 393 | – | – | Nc1ncnc2c1c(-c1ccc(Oc3ccccc3)cc1)nn2C1CCN(C2CCN(C3CN(c4cc5c(cc4F)C(=O)N(C4CCC(=O)NC4=O)C5=O)C3)CC2)CC1 (stereo not drawn) [Compound 32, 5-(3-(4-(4-amino-3-(4-phenoxyphenyl)-1H-pyrazolo[3,4-d]pyrimidin-1-yl)-[1,4′-bipiperidin]-1′-yl)azetidin-1-yl)-2-(2,6-dioxopiperidin-3-yl)-6-fluoroisoindoline-1,3-dione] | 188 |
| – | 329 | 670 | 10.8 ± 1.5 | 7910 ± 1100 | Nc1ncnc2c1c(-c1ccc(Oc3ccccc3)cc1)nn2[C@H]1CCN(C2CN(C3CN(c4ccc5c(c4)C(=O)N(C4CCC(=O)NC4=O)C5=O)C3)C2)C[C@H]1F (stereo partly drawn) [Compound 41, 5-(3-((3R,4S)-4-(4-amino-3-(4-phenoxyphenyl)-1H-pyrazolo[3,4-d]pyrimidin-1-yl)-3-fluoropiperidin-1-yl)-[1,3′-biazetidin]-1′-yl)-2-(2,6-dioxopiperidin-3-yl)isoindoline-1,3-dione] | 10.3 |
| – | – | – | 5.73 ± 0.64 | 877 ± 98 | Nc1ncnc2c1c(-c1ccc(Oc3ccccc3)cc1)nn2[C@H]1CCN(C2CCN(C3CN(c4ccc5c(c4)C(=O)N(C4CCC(=O)NC4=O)C5=O)C3)CC2)C[C@@H]1F (stereo partly drawn) [Compound 44, 5-(3-((3S,4S)-4-(4-amino-3-(4-phenoxyphenyl)-1H-pyrazolo[3,4-d]pyrimidin-1-yl)-3-fluoro-[1,4′-bipiperidin]-1′-yl)azetidin-1-yl)-2-(2,6-dioxopiperidin-3-yl)isoindoline-1,3-dione] | 15 |
